Columns and labels:
Test in all cases: KINOMEscan kinase binding assay (Eurofins/DiscoveRx), % Ctrl
kinases [1] = molecular target: T1, kinases (Homo sapiens, UniProt P07949, V804M)
T1 construct: purchased Eurofins/DiscoveRx; host or cells: E. coli BL21-derived host (T7 phage display) for most kinases; HEK-293 for the rest
Method in brief: (§1)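 Competition binding, 1 h RT: phage-tagged or HEK-293-expressed DNA-tagged kinase + immobilized ligand + compound. Eluate kinase by qPCR. % Ctrl = (test − positive ctrl)/(negative ctrl − positive ctrl) × 100; lower means stronger binding.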

kinases [2] = molecular target: T2, kinases (Homo sapiens, UniProt P10721, A829P)
T2 construct: purchased Eurofins/DiscoveRx; host or cells: E. coli BL21-derived host (T7 phage display) for most kinases; HEK-293 for the rest
T2 sequence (P10721 26-976 A829P): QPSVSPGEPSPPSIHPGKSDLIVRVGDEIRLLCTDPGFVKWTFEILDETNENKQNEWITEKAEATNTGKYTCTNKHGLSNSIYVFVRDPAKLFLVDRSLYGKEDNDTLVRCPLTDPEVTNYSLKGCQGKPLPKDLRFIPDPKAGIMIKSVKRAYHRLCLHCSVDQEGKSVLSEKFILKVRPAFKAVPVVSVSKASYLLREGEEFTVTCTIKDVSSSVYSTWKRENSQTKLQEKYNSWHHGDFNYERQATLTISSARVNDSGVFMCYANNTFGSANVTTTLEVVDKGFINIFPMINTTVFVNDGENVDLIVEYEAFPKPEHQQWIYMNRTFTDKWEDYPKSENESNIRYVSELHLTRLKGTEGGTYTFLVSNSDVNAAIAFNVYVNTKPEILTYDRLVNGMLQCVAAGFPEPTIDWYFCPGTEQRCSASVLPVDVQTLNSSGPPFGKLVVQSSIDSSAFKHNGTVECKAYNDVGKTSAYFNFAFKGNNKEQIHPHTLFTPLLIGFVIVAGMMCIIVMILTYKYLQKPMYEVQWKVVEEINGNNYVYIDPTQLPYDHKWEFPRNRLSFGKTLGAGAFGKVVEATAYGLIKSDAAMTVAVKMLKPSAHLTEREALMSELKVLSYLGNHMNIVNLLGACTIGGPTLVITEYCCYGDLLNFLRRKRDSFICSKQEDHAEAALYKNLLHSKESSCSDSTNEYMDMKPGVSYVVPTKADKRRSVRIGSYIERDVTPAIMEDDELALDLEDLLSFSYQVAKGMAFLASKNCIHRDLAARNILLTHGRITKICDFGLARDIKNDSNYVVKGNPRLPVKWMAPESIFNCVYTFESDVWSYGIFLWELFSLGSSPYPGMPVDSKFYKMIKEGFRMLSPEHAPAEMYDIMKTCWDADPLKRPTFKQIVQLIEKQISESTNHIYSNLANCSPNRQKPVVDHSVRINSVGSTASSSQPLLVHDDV
Method in brief: as §1

kinases [3] = molecular target: T3, kinases (Homo sapiens, UniProt P36888, D835V)
T3 construct: purchased Eurofins/DiscoveRx; host or cells: E. coli BL21-derived host (T7 phage display) for most kinases; HEK-293 for the rest
T3 sequence (P36888 27-993 D835V): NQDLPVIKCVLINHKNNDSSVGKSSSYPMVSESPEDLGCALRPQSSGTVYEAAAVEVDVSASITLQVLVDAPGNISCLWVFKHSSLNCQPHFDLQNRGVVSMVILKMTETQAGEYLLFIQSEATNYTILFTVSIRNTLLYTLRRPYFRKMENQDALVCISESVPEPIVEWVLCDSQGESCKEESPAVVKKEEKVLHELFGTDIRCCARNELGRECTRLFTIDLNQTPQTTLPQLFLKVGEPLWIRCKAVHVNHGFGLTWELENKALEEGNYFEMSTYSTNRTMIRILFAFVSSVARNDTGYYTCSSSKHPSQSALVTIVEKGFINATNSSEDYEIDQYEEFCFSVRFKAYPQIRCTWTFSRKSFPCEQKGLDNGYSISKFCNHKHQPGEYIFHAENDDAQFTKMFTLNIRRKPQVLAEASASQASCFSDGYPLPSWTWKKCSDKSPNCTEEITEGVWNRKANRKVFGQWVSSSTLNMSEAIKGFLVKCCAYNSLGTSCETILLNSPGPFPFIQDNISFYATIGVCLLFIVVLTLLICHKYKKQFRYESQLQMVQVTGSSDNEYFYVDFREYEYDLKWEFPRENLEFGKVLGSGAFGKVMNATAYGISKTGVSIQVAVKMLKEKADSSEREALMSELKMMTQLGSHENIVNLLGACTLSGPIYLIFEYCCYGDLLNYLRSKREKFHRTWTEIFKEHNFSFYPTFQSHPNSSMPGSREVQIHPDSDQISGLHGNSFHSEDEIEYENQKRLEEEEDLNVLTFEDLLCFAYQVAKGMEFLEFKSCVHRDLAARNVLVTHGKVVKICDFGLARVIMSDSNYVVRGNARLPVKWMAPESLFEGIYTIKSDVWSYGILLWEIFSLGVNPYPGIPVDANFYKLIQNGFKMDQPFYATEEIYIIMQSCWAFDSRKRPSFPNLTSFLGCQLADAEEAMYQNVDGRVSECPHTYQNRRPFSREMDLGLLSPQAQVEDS
Method in brief: as §1

kinases [4] = molecular target: T4, kinases (Homo sapiens, UniProt P00519, M351T)
T4 construct: purchased Eurofins/DiscoveRx; host or cells: E. coli BL21-derived host (T7 phage display) for most kinases; HEK-293 for the rest
Method in brief: as §1

kinases [5] = molecular target: T5, kinases (Homo sapiens, UniProt P00519, Q252H)
T5 construct: purchased Eurofins/DiscoveRx; host or cells: E. coli BL21-derived host (T7 phage display) for most kinases; HEK-293 for the rest
Method in brief: as §1

kinases [6] = molecular target: T6, kinases (Homo sapiens, UniProt P00533)
T6 construct: purchased Eurofins/DiscoveRx; host or cells: E. coli BL21-derived host (T7 phage display) for most kinases; HEK-293 for the rest
Method in brief: as §1

kinases [7] = molecular target: T7, kinases (Homo sapiens, UniProt P10721, V559D/V654A)
T7 construct: purchased Eurofins/DiscoveRx; host or cells: E. coli BL21-derived host (T7 phage display) for most kinases; HEK-293 for the rest
T7 sequence (P10721 26-976 V559D/V654A): as the sequence (P10721 26-976 A829P) above, with V534D, V629A, P804A counted along it
Method in brief: as §1

kinases [8] = molecular target: T8, kinases (Homo sapiens, UniProt P00533, DEL746-750)
T8 construct: purchased Eurofins/DiscoveRx; host or cells: E. coli BL21-derived host (T7 phage display) for most kinases; HEK-293 for the rest
Method in brief: as §1

kinases [9] = test system: kinases
Method in brief: as §1

kinases [10] = molecular target: T9, kinases (Homo sapiens, UniProt P10721, T670I/V559D)
T9 construct: purchased Eurofins/DiscoveRx; host or cells: E. coli BL21-derived host (T7 phage display) for most kinases; HEK-293 for the rest
T9 sequence (P10721 26-976 V559D/T670I): as the sequence (P10721 26-976 A829P) above, with V534D, T645I, P804A counted along it
Method in brief: as §1

[11] = target ABL1(M351T)-phosphorylated; 1 μM
[12] = target ABL1(Q252H)-nonphosphorylated; 1 μM
[13] = target ABL1(Q252H)-phosphorylated; 1 μM
[14] = target EGFR(E746-A750del); 1 μM
[15] = target EGFR(L747-E749del, A750P); 1 μM
[16] = target EGFR(L747-S752del, P753S); 1 μM
[17] = target EGFR(L747-T751del, Sins); 1 μM

T1 sequence (P07949 29-1114 V804M): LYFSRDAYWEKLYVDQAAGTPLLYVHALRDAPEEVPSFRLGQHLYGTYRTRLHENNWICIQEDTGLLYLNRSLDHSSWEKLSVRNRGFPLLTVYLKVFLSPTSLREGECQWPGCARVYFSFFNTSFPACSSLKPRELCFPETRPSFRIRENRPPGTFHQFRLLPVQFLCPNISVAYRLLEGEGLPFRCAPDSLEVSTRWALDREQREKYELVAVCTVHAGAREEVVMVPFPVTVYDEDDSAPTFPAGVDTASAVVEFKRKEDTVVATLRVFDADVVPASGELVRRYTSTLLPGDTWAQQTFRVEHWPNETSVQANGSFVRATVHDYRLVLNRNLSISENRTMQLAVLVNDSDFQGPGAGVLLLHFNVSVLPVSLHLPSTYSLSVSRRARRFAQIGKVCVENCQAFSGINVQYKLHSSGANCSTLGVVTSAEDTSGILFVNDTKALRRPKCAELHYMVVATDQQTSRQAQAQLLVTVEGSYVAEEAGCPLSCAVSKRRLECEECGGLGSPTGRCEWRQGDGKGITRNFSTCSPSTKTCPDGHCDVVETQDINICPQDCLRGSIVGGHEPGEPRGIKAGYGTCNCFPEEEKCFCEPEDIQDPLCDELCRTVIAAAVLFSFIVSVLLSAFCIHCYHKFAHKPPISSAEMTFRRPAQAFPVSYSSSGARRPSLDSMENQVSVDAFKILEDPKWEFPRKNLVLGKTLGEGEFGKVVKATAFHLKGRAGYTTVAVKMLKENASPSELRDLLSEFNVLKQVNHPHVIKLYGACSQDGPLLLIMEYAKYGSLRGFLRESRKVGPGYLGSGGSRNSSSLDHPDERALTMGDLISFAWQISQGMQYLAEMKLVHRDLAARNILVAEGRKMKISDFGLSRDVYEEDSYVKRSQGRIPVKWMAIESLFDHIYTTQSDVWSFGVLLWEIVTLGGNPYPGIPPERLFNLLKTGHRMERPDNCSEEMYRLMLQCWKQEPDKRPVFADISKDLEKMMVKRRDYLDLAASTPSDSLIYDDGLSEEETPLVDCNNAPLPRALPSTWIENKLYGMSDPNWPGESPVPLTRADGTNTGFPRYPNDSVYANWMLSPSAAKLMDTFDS

Row | SMILES | % Ctrl, RET(V804M) (kinases [1]; target RET(V804M); 1 μM) [% Ctrl] | % Ctrl, KIT(A829P) (kinases [2]; target KIT(A829P); 1 μM) [% Ctrl] | % Ctrl, FLT3(D835V) (kinases [3]; target FLT3(D835V); 1 μM) [% Ctrl] | % Ctrl, ABL1(M351T)-phosphorylated (kinases [4]; [11]) [% Ctrl] | % Ctrl, ABL1(Q252H)-nonphosphorylated (kinases [5]; [12]) [% Ctrl] | % Ctrl, ABL1(Q252H)-phosphorylated (kinases [5]; [13]) [% Ctrl] | % Ctrl, EGFR (kinases [6]; target EGFR; 1 μM) [% Ctrl] | % Ctrl, KIT(V559D, V654A) (kinases [7]; target KIT(V559D, V654A); 1 μM) [% Ctrl] | % Ctrl, EGFR(E746-A750del) (kinases [8]; [14]) [% Ctrl] | % Ctrl, EGFR(L747-E749del, A750P) (kinases [9]; [15]) [% Ctrl] | % Ctrl, EGFR(L747-S752del, P753S) (kinases [9]; [16]) [% Ctrl] | % Ctrl, EGFR(L747-T751del, Sins) (kinases [9]; [17]) [% Ctrl] | % Ctrl, FLT3(ITD) (kinases [9]; target FLT3(ITD); 1 μM) [% Ctrl] | % Ctrl, FLT3(ITD, D835V) (kinases [9]; target FLT3(ITD, D835V); 1 μM) [% Ctrl] | % Ctrl, FLT3(ITD, F691L) (kinases [9]; target FLT3(ITD, F691L); 1 μM) [% Ctrl] | % Ctrl, KIT(V559D, T670I) (kinases [10]; target KIT(V559D, T670I); 1 μM) [% Ctrl] | also measured
1 | Cc1nn(C)c2c1-c1ccc3c(c1)/C(=C/c1[nH]ccc1C(=O)N(C)CCCO2)C(=O)N3 [Ex. 150, [3a(4)Z]-9,14,16-trimethyl-10,11,13,14-tetrahydro-2H-1,17-(ethanediylidene)pyrazolo[4,3-m]dipyrrolo[3,2-f:3′,4′-i][1,4]oxazacyclopentadecine-3,8(5H,9H)-dione] | 68 | 96 | 13 | 94 | 93 | 100 | 61 | 100 | 98 | 94 | 100 | 94 | 72 | 35 | 59 | 97 | 
2 | Cc1cc2c([nH]1)/C=C1\C(=O)Nc3ccc(cc31)-c1c(C)nn(C)c1COCCN(C)C2=O [Ex. 146, [3a(4)Z]-6,9,14,16-tetramethyl-10,11,13,14-tetrahydro-2H-1,17-(ethanediylidene)pyrazolo[4,3-m]dipyrrolo[3,2-f:3′,4′-i][1,4]oxazacyclopentadecine-3,8(5H,9H)-dione] | 12 | 92 | 0.2 | 67 | 74 | 93 | 51 | 97 | 73 | 38 | 60 | 77 | 4.7 | 0.3 | 3.2 | 75 | 
3 | Cc1cc2c([nH]1)/C=C1\C(=O)Nc3ccc(cc31)-c1c(noc1C(C)C)COCCN(C)C2=O [Ex. 161, [3a(4)Z]-9-methyl-16-(propan-2-yl)-10,11-dihydro-2H,13H-1,17-(ethanediylidene)[1,2]oxazolo[4,3-m]dipyrrolo[3,2-f:3′,4′-i][1,4]oxazacyclopentadecine-3,8(5H,9H)-dione] |  |  |  |  |  |  |  |  |  |  |  |  |  |  |  |  | % Ctrl, RET(V804M) (kinases [1]; 1 μM; target RET(V804M)): 83 % Ctrl; % Ctrl, KIT(A829P) (kinases [2]; 1 μM; target KIT(A829P)): 95 % Ctrl; % Ctrl, FLT3(D835V) (kinases [3]; 1 μM; target FLT3(D835V)): 23 % Ctrl; % Ctrl, ABL1(M351T)-phosphorylated (kinases [4]; 1 μM; target ABL1(M351T)-phosphorylated): 81 % Ctrl; % Ctrl, ABL1(Q252H)-nonphosphorylated (kinases [5]; 1 μM; target ABL1(Q252H)-nonphosphorylated): 100 % Ctrl; % Ctrl, ABL1(Q252H)-phosphorylated (kinases [5]; 1 μM; target ABL1(Q252H)-phosphorylated): 79 % Ctrl; % Ctrl, EGFR (kinases [6]; 1 μM; target EGFR): 73 % Ctrl; % Ctrl, KIT(V559D, V654A) (kinases [7]; 1 μM; target KIT(V559D, V654A)): 87 % Ctrl; % Ctrl, EGFR(E746-A750del) (kinases [8]; 1 μM; target EGFR(E746-A750del)): 87 % Ctrl; % Ctrl, EGFR(L747-E749del, A750P) (kinases [9]; 1 μM; target EGFR(L747-E749del, A750P)): 100 % Ctrl; % Ctrl, EGFR(L747-S752del, P753S) (kinases [9]; 1 μM; target EGFR(L747-S752del, P753S)): 80 % Ctrl; % Ctrl, EGFR(L747-T751del, Sins) (kinases [9]; 1 μM; target EGFR(L747-T751del, Sins)): 93 % Ctrl; % Ctrl, FLT3(ITD) (kinases [9]; 1 μM; target FLT3(ITD)): 85 % Ctrl; % Ctrl, FLT3(ITD, D835V) (kinases [9]; 1 μM; target FLT3(ITD, D835V)): 83 % Ctrl; % Ctrl, FLT3(ITD, F691L) (kinases [9]; 1 μM; target FLT3(ITD, F691L)): 82 % Ctrl; % Ctrl, KIT(V559D, T670I) (kinases [10]; 1 μM; target KIT(V559D, T670I)): 95 % Ctrl

Source: patent US20230257396A1, “MACROCYCLES AND THEIR USE” (BLOSSOMHILL THERAPEUTICS, INC., priority 2020, published 2023)
